Test results taken from PubChem BioAssay (NCI).
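Where inhibition never reached the appropriate level, the endpoint shown equals the highest concentration tested. Otherwise, values were interpolated linearly from a five-concentration, 48-hour dose response in 96-well plates. Here, GI50 denotes the concentration required for 50% inhibition of growth. At the TGI there is no net growth.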

Tests used:
Test in all cases: NCI-60 cell line screen, 48 h
[1] = system: MDA-MB-435
[2] = system: NCI-H522 lung
[3] = system: TK-10 renal
[4] = system: HCT-15 colon
[5] = system: OVCAR-3 ovarian
[6] = system: MOLT-4 leukemia
[7] = system: A498 renal
[8] = system: KM12 colon
[9] = system: K-562 leukemia
[10] = system: UO-31 renal
[11] = system: M14 melanoma
[12] = system: MALME-3M melanoma
[13] = system: SK-OV-3 ovarian
[14] = system: HCC-2998 colon
[15] = system: IGROV1 ovarian
[16] = system: SF-268 CNS
[17] = system: SNB-75 CNS
[18] = system: NCI-H460 lung
[19] = system: CCRF-CEM leukemia
[20] = system: OVCAR-4 ovarian
[21] = system: OVCAR-8 ovarian
[22] = system: MCF7 breast
[23] = system: SN12C renal
[24] = system: UACC-257 melanoma
[25] = system: COLO 205 colon
[26] = system: SK-MEL-2 melanoma
[27] = system: MDA-MB-231 breast
[28] = system: U251 CNS
[29] = system: HL-60(TB) leukemia
[30] = system: HOP-62 NSCLC
[31] = system: ACHN renal
[32] = system: SNB-19 CNS
[33] = system: HCT-116 colon
[34] = system: SK-MEL-5 melanoma
[35] = system: SW-620 colon
[36] = system: NCI-H226 lung
[37] = system: SF-539 CNS
[38] = system: 786-0 renal
[39] = system: DU-145 prostate
[40] = system: RPMI-8226 leukemia
[41] = system: NCI/ADR-RES ovarian
[42] = system: BT-549 breast
[43] = system: HS 578T breast
[44] = system: SK-MEL-28 melanoma
[45] = system: LOX IMVI melanoma
[46] = system: CAKI-1 renal
[47] = system: UACC-62 melanoma
[48] = system: OVCAR-5 ovarian
[49] = system: RXF 393 renal
[50] = system: T-47D breast
[51] = system: A549 NSCLC
[52] = system: EKVX NSCLC
[53] = system: HOP-92 NSCLC
[54] = system: PC-3 prostate
[55] = system: NCI-H23 lung
[56] = system: HT29 colon

Compound: O=c1c2c3c(sc2n2c(CCl)nnc2n1Cc1ccccc1)CCCC3
- GI50 [1]: 3.4 µM
- TGI [1]: 11 µM
- GI50 [2]: 1.89 µM
- TGI [2]: 4.17 µM
- GI50 [3]: 5.25 µM
- TGI [3]: 10.7 µM
- GI50 [4]: 1.86 µM
- TGI [4]: 5.34 µM
- GI50 [5]: 1.76 µM
- TGI [5]: 3.21 µM
- GI50 [6]: 3.62 µM
- TGI [6]: 17.1 µM
- GI50 [7]: 9.17 µM
- TGI [7]: 23.1 µM
- GI50 [8]: 2.39 µM
- TGI [8]: 6.05 µM
- GI50 [9]: 2.33 µM
- TGI [9]: 5.39 µM
- GI50 [10]: 1.51 µM
- TGI [10]: 2.88 µM
- GI50 [11]: 1.79 µM
- TGI [11]: 5.43 µM
- GI50 [12]: 3.48 µM
- TGI [12]: 10.7 µM
- GI50 [13]: 13.4 µM
- TGI [13]: 48.8 µM
- GI50 [14]: 1.74 µM
- TGI [14]: 3.39 µM
- GI50 [15]: 0.0645 µM
- TGI [15]: 1.53 µM
- GI50 [16]: 1.83 µM
- TGI [16]: 3.72 µM
- GI50 [17]: 4.51 µM
- TGI [17]: 9.03 µM
- GI50 [18]: 2.58 µM
- TGI [18]: 7.98 µM
- GI50 [19]: 0.434 µM
- GI50 [20]: 2.79 µM
- TGI [20]: 7.74 µM
- GI50 [21]: 2.28 µM
- TGI [21]: 6.19 µM
- GI50 [22]: 1.75 µM
- TGI [22]: 4.54 µM
- GI50 [23]: 1.62 µM
- TGI [23]: 3.86 µM
- GI50 [24]: 2.12 µM
- TGI [24]: 4.29 µM
- GI50 [25]: 1.94 µM
- TGI [25]: 4.05 µM
- GI50 [26]: 1.53 µM
- TGI [26]: 2.98 µM
- GI50 [27]: 2.22 µM
- TGI [27]: 5.23 µM
- GI50 [28]: 1.6 µM
- TGI [28]: 3.03 µM
- GI50 [29]: 2.16 µM
- TGI [29]: > 19.8 µM
- GI50 [30]: 3.55 µM
- TGI [30]: 7.87 µM
- GI50 [31]: 1.6 µM
- TGI [31]: 2.96 µM
- GI50 [32]: 15.8 µM
- TGI [32]: 32.1 µM
- GI50 [33]: 1.51 µM
- TGI [33]: 3.13 µM
- GI50 [34]: 2.94 µM
- TGI [34]: 7.62 µM
- GI50 [35]: 1.76 µM
- TGI [35]: 3.51 µM
- GI50 [36]: 1.74 µM
- TGI [36]: 4.37 µM
- GI50 [37]: 3.24 µM
- TGI [37]: 10.1 µM
- GI50 [38]: 2.01 µM
- TGI [38]: 3.75 µM
- GI50 [39]: 2.45 µM
- TGI [39]: 6.18 µM
- GI50 [40]: 1.97 µM
- TGI [40]: 5.05 µM
- GI50 [41]: 3.84 µM
- TGI [41]: > 51.1 µM
- GI50 [42]: 2.41 µM
- TGI [42]: 9.44 µM
- GI50 [43]: 1.92 µM
- TGI [43]: 5.9 µM
- GI50 [44]: 1.7 µM
- TGI [44]: 3.16 µM
- GI50 [45]: 0.284 µM
- TGI [45]: 1.32 µM
- GI50 [46]: 2.9 µM
- TGI [46]: 7.79 µM
- GI50 [47]: 1.99 µM
- TGI [47]: 5.64 µM
- GI50 [48]: 2.34 µM
- TGI [48]: 5.23 µM
- GI50 [49]: 1.98 µM
- TGI [49]: 4.17 µM
- GI50 [50]: 2.5 µM
- TGI [50]: 6.5 µM
- GI50 [51]: 2.79 µM
- TGI [51]: 7.3 µM
- GI50 [52]: 7.96 µM
- TGI [52]: 27.9 µM
- GI50 [53]: 1.83 µM
- TGI [53]: 3.8 µM
- GI50 [54]: 1.85 µM
- TGI [54]: 4.01 µM
- GI50 [55]: 2.27 µM
- TGI [55]: 8.43 µM
- GI50 [56]: 1.95 µM
- TGI [56]: 4.05 µM
